“And” between values parts separate entries of the source, which are not always exact repeats. Identical values can stand only once. Inconclusive results and toxic doses are left out. No stated cut-off is given here; in the data, active means T/C of 150% or more; inactive means T/C below 125%.
Test system: L1210 leukemia ip in BDF1 mice, survival T/C
Assay: NCI In Vivo Anticancer Drug Screen. Data for tumor model L1210 Leukemia (intraperitoneal) in B6D2F1 (BDF1) mice
Details: endpoint: mean survival time, higher = longer survival
Summary of the method: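 Value reflects the ratio of survival in compound-treated mice to survival in vehicle-treated controls, with both groups carrying the same transplanted tumor.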

[1] = dose: 25.0 mg/kg/injection, schedule: Q01DX009 (ip), vehicle: Klucel (hydroxypropylcellulose) (HPC)
[2] = dose: 50.0 mg/kg/injection, schedule: Q01DX009 (ip), vehicle: Klucel (hydroxypropylcellulose) (HPC)
[3] = dose: 100.0 mg/kg/injection, schedule: Q01DX009 (ip), vehicle: Klucel (hydroxypropylcellulose) (HPC)
[4] = dose: 100.0 mg/kg/injection, schedule: Q04DX003 (ip), vehicle: Klucel (hydroxypropylcellulose) (HPC)
[5] = dose: 200.0 mg/kg/injection, schedule: Q04DX003 (ip), vehicle: Klucel (hydroxypropylcellulose) (HPC)
[6] = dose: 400.0 mg/kg/injection, schedule: Q04DX003 (ip), vehicle: Klucel (hydroxypropylcellulose) (HPC)
[7] = dose: 100.0 mg/kg/injection, schedule: Q04DX003 (ip), vehicle: saline with Tween-80
[8] = dose: 200.0 mg/kg/injection, schedule: Q04DX003 (ip), vehicle: saline with Tween-80
[9] = dose: 400.0 mg/kg/injection, schedule: Q04DX003 (ip), vehicle: saline with Tween-80
[10] = dose: 100.0 mg/kg/injection, schedule: Q01DX001 (ip), vehicle: saline
[11] = dose: 25.0 mg/kg/injection, schedule: Q01DX009 (ip), vehicle: saline
[12] = dose: 50.0 mg/kg/injection, schedule: Q01DX009 (ip), vehicle: saline
[13] = dose: 100.0 mg/kg/injection, schedule: Q01DX009 (ip), vehicle: saline
[14] = dose: 200.0 mg/kg/injection, schedule: Q01DX009 (ip), vehicle: saline
[15] = dose: 400.0 mg/kg/injection, schedule: Q01DX009 (ip), vehicle: saline
[16] = dose: 100.0 mg/kg/injection, schedule: Q04DX002 (ip), vehicle: Klucel (hydroxypropylcellulose) (HPC)
[17] = dose: 200.0 mg/kg/injection, schedule: Q04DX002 (ip), vehicle: Klucel (hydroxypropylcellulose) (HPC)
[18] = dose: 400.0 mg/kg/injection, schedule: Q04DX002 (ip), vehicle: Klucel (hydroxypropylcellulose) (HPC)

Measured: T/C

CCCCN=C(N)CCl
inactive: dose: 25.0 mg/kg/injection, schedule: Q04DX002 (ip), vehicle: saline 106 % of control | dose: 50.0 mg/kg/injection, schedule: Q04DX002 (ip), vehicle: saline 95 % of control | dose: 100.0 mg/kg/injection, schedule: Q04DX002 (ip), vehicle: saline 124 % of control

O=[N+]([O-])c1cc([N+](=O)[O-])c(NN(c2ccc(Cl)cc2)c2ccc(Cl)cc2)c([N+](=O)[O-])c1
inactive: [1] 96 % of control | [2] 105 % of control | [3] 98 % of control | [4] 98 % of control | [5] 96 % of control | [6] 96 % of control

CC(C)(C)C(=O)OCn1cnc(C#N)c1[N+](=O)[O-]
inactive: dose: 100.0 mg/kg/injection, schedule: Q01DX001 (ip), vehicle: acetone 92 % of control | dose: 200.0 mg/kg/injection, schedule: Q01DX001 (ip), vehicle: acetone 101 % of control | dose: 400.0 mg/kg/injection, schedule: Q01DX001 (ip), vehicle: acetone 92 % of control

O=C1NC(c2ccccc2)C(=O)NC1c1ccccc1 (stereo not given)
inactive: [7] 94 % of control | [8] 86 % of control | [9] 89 % of control

Cc1cccc(C)c1C1CC1S(=O)(=O)c1ccccc1 (stereo not given)
inactive: [10] 101 % of control | dose: 100.0 mg/kg/injection, schedule: Q04DX003 (ip), vehicle: saline 100 % of control | dose: 200.0 mg/kg/injection, schedule: Q01DX001 (ip), vehicle: saline 98 % of control | dose: 200.0 mg/kg/injection, schedule: Q04DX003 (ip), vehicle: saline 94 % of control | dose: 400.0 mg/kg/injection, schedule: Q01DX001 (ip), vehicle: saline 111 % of control | dose: 400.0 mg/kg/injection, schedule: Q04DX003 (ip), vehicle: saline 104 % of control

CC1(C)C(C#N)C(=O)N=C(N)C1C(N)=O (stereo not given)
inactive: [1] 94 % of control | [2] 94 % of control | [3] 94 % of control | [4] 92 % of control

COc1ccc(C2(SCC(N)C(=O)O)c3ccccc3-c3ccccc32)cc1 (stereo not given)
inactive: [11] 101 % of control | [12] 98 % of control | [13] 95 % of control | [14] 93 % of control | dose: 300.0 mg/kg/injection, schedule: Q01DX009 (ip), vehicle: saline 98 % of control | [15] 102 % of control

CCCCCOC(=O)COc1ccc(Cl)cc1
inactive: [16] 98 % of control | [17] 98 % of control | [18] 103 % of control

COc1cc2c(cc1OC)C13CCN4CC5=CCOC6CC(=O)N2C1C6C5CC43 (stereo not given) (tested in a mixture with another compound)
inactive: dose: 12.0 mg/kg/injection, schedule: Q01DX001 (ip), vehicle: Klucel (hydroxypropylcellulose) (HPC) 89 % of control | dose: 12.0 mg/kg/injection, schedule: Q01DX009 (ip), vehicle: Klucel (hydroxypropylcellulose) (HPC) 97 % of control | dose: 12.5 mg/kg/injection, schedule: Q01DX001 (ip), vehicle: Klucel (hydroxypropylcellulose) (HPC) 101 % of control | dose: 12.5 mg/kg/injection, schedule: Q01DX009 (ip), vehicle: saline 97 % of control | dose: 25.0 mg/kg/injection, schedule: Q01DX001 (ip), vehicle: Klucel (hydroxypropylcellulose) (HPC) 95 % of control and 93 % of control | dose: 25.0 mg/kg/injection, schedule: Q01DX001 (ip), vehicle: saline with Tween-80 89 % of control | [1] 96 % of control | [11] 97 % of control | dose: 25.0 mg/kg/injection, schedule: Q04DX003 (ip), vehicle: Klucel (hydroxypropylcellulose) (HPC) 104 % of control | dose: 25.0 mg/kg/injection, schedule: Q04DX003 (ip), vehicle: saline with Tween-80 94 % of control | dose: 25.0 mg/kg/injection, schedule: Q04DX003 (ip), vehicle: saline 111 % of control | dose: 50.0 mg/kg/injection, schedule: Q01DX001 (ip), vehicle: Klucel (hydroxypropylcellulose) (HPC) 100 % of control and 102 % of control | dose: 50.0 mg/kg/injection, schedule: Q01DX001 (ip), vehicle: saline with Tween-80 96 % of control | [2] 91 % of control | [12] 106 % of control | dose: 50.0 mg/kg/injection, schedule: Q04DX003 (ip), vehicle: Klucel (hydroxypropylcellulose) (HPC) 107 % of control | dose: 50.0 mg/kg/injection, schedule: Q04DX003 (ip), vehicle: saline with Tween-80 100 % of control | dose: 50.0 mg/kg/injection, schedule: Q04DX003 (ip), vehicle: saline 107 % of control | dose: 75.0 mg/kg/injection, schedule: Q01DX001 (ip), vehicle: other 95 % of control | dose: 75.0 mg/kg/injection, schedule: Q01DX001 (ip), vehicle: saline 98 % of control and 94 % of control and 107 % of control | dose: 75.0 mg/kg/injection, schedule: Q01DX009 (ip), vehicle: saline 107 % of control | dose: 100.0 mg/kg/injection, schedule: Q01DX001 (ip), vehicle: Klucel (hydroxypropylcellulose) (HPC) 103 % of control | [4] 95 % of control | [7] 89 % of control | dose: 150.0 mg/kg/injection, schedule: Q01DX001 (ip), vehicle: other 86 % of control | dose: 150.0 mg/kg/injection, schedule: Q01DX001 (ip), vehicle: saline 98 % of control | [5] 90 % of control | dose: 300.0 mg/kg/injection, schedule: Q01DX001 (ip), vehicle: other 89 % of control

COc1ccccc1NC(=O)c1ccco1
inactive: dose: 12.5 mg/kg/injection, schedule: Q04DX002 (ip), vehicle: Klucel (hydroxypropylcellulose) (HPC) 102 % of control | dose: 25.0 mg/kg/injection, schedule: Q04DX002 (ip), vehicle: Klucel (hydroxypropylcellulose) (HPC) 102 % of control | dose: 50.0 mg/kg/injection, schedule: Q04DX002 (ip), vehicle: Klucel (hydroxypropylcellulose) (HPC) 97 % of control | [16] 95 % of control | [17] 106 % of control | [18] 103 % of control

C(=C\c1ccnc2ccccc12)/c1ccccc1
inactive: [13] 101 % of control | [7] 89 % of control | [14] 101 % of control | [8] 94 % of control | [15] 100 % of control | [9] 89 % of control

OCC(I)CO
inactive: [10] 106 % of control

Nc1nc2nc(N=Nc3ccc(C(=O)O)cc3)[nH]c2c(=O)[nH]1
inactive: [4] 96 % of control | [5] 91 % of control | [6] 99 % of control

CCCCCCCCCCCC(C1CCC(C)CC1)C1CCC(C)CC1 (stereo not given)
inactive: dose: 100.0 mg/kg/injection, schedule: Q01DX001 (ip), vehicle: saline with Tween-80 95 % of control | dose: 400.0 mg/kg/injection, schedule: Q01DX001 (ip), vehicle: saline with Tween-80 89 % of control

— PubChem BioAssay AID248 (DTP/NCI, 2004)
